Assay results: ChEMBL document CHEMBL1146701, “Discovery of a novel bicycloproline P2 bearing peptidyl alpha-ketoamide LY514962 as HCV protease inhibitor” (Bioorg Med Chem Lett, 2004)
Each block holds one compound with its values, some of them ahead of it.

Key:
Huh-7 (Homo sapiens) = assay: Cytotoxic activity against human hepatoma Huh-7 cells at 100 uM concentration
[1] = tested on: Hepatitis C virus NS3 protease; assay: Inhibitory activity against Protease using replicon assay […] at 25 uM concentration; conditions: Rattus norvegicus
[2] = target: Plasminogen (Rattus norvegicus) (UniProt Q01177); assay: Inhibitory activity against plasmin; conditions: concentration not given here
Chain of Plasminogen (Rattus norvegicus) (Q01177 97-581 limits assumed): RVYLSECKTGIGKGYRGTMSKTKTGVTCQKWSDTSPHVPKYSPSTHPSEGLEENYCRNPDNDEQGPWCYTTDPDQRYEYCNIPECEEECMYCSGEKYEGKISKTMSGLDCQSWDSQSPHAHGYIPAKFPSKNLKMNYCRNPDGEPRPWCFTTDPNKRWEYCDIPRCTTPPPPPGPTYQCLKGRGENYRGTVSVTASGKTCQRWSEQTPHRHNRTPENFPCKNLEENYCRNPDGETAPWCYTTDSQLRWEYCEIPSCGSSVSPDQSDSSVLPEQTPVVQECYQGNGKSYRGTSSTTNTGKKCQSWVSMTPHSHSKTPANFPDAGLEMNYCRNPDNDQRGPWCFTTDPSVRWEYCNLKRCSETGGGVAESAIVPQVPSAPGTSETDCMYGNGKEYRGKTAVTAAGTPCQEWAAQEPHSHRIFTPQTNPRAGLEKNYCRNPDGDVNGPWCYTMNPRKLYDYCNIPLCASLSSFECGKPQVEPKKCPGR
Chain of Plasminogen (Rattus norvegicus) (Q01177 582-812 limits assumed): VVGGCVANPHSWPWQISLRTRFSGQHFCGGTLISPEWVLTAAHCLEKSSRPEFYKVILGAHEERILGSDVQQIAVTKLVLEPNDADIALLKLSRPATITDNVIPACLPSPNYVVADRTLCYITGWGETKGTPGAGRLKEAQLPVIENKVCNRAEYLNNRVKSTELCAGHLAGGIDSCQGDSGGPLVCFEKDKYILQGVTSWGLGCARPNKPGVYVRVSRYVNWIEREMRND

Rattus norvegicus [3] = assay: In vivo concentration in rat liver exposure 0-8 hour after oral administration 50 mg/kg; assay type: ADME, organism-based; parameters: dose 50 mg/kg, route oral
[4] = target: Prothrombin (Homo sapiens) (UniProt P00734); assay: Inhibitory activity against thrombin; conditions: concentration not given here
[5] = target: Kallikrein-1 (Homo sapiens) (UniProt P06870); assay: Inhibitory activity against kallikrein; conditions: concentration not given here
Chain of Kallikrein-1 (Homo sapiens) (P06870 25-262 limits assumed): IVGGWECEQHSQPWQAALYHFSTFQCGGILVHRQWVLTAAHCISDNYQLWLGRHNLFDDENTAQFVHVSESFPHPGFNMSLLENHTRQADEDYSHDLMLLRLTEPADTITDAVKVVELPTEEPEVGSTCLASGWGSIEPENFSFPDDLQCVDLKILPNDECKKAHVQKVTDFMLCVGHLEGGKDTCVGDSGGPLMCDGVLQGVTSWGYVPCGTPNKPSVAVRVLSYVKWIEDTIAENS

Rattus norvegicus [6] = assay: In vivo area under curve in rat plasma exposure after oral administration 50 mg/kg; assay type: ADME, organism-based; parameters: dose 50 mg/kg, route oral
[7] = In vivo concentration in rat liver exposure 8 hour after oral administration 50 mg/kg; assay type: ADME, organism-based; parameters: dose 50 mg/kg, route oral; conditions: read-out: C
[8] = target: Serine protease 1 (Homo sapiens) (UniProt P07477); assay: Inhibitory activity against trypsin; conditions: concentration not given here
Chain of Serine protease 1 (Homo sapiens) (P07477 whole entry): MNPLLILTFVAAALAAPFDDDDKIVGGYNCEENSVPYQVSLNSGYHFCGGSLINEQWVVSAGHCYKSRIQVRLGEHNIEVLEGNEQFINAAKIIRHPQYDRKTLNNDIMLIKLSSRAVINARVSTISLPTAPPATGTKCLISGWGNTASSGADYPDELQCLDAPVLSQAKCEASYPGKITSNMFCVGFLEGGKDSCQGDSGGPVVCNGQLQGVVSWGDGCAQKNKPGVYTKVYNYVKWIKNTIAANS

[9] = In vivo maximum concentration in rat plasma exposure after oral administration 50 mg/kg; assay type: ADME, organism-based; parameters: dose 50 mg/kg, route oral
Rattus norvegicus [10] = species on record: Rattus norvegicus; assay: Inhibitory activity against Protease using replicon assay […] at 25 uM concentration
[11] = In vivo concentration in rat plasma exposure at 8 hour after oral administration 50 mg/kg; assay type: ADME, organism-based; parameters: dose 50 mg/kg, route oral; conditions: read-out: C
[12] = tested on: Hepatitis C virus NS3 protease; assay: Cytotoxic activity against Protease in […] Huh-7 cells at 100 uM

- inhibition [2]: 5%
- Caverage (Rattus norvegicus [3]): 6290 nM
- inhibition [4]: 12%
- inhibition [5]: 0%
- AUC (Rattus norvegicus [6]): 2.86 µg/h/mL
- concentration at 8 h [7]: 500 nM
- inhibition [8]: 0%
- Cmax [9]: 2250 ng/mL
- inhibition (Rattus norvegicus [10]): 93%
- concentration at 8 h [11]: 10 ng/mL
Structure (SMILES): CCCC(NC(=O)[C@@H]1[C@H]2CCC[C@H]2CN1C(=O)[C@@H](NC(=O)[C@@H](NC(=O)c1cnccn1)C(C)C)C(C)C)C(=O)C(=O)NC1CC1 (stereo not given in full)

- inhibition [1]: 84%
Structure (SMILES): CCCC(NC(=O)[C@@H]1[C@H]2CC[C@H](F)[C@H]2CN1C(=O)[C@@H](NC(=O)[C@@H](NC(=O)c1cnccn1)C(C)C)C(C)C)C(=O)C(=O)NC1CC1 (stereo not given in full)

- inhibition [1]: 64%
Structure (SMILES): CCCC(NC(=O)[C@@H]1[C@H]2CCC(F)(F)[C@H]2CN1C(=O)[C@@H](NC(=O)[C@@H](NC(=O)c1cnccn1)C(C)C)C(C)C)C(=O)C(=O)NC1CC1 (stereo not given in full)

More lines, now with the values behind:

Structure (SMILES): CCCC(NC(=O)[C@@H]1[C@H]2CC=C[C@H]2CN1C(=O)[C@@H](NC(=O)[C@@H](NC(=O)c1cnccn1)C(C)C)C(C)C)C(=O)C(=O)N[C@@H](C)c1ccccc1 (stereo not given in full)
- inhibition (Huh-7 (Homo sapiens)): 33%
- inhibition [1]: 97%

Structure (SMILES): CCCC(NC(=O)[C@@H]1[C@H]2CCC[C@H]2CN1C(=O)[C@@H](NC(=O)[C@@H](NC(=O)c1cnccn1)C(C)C)C(C)C)C(=O)C(=O)N[C@@H](C)c1ccccc1 (stereo not given in full)
- inhibition (Rattus norvegicus [10]): 97%

Structure (SMILES): CCCC(NC(=O)[C@@H]1[C@H]2CC[C@H](F)[C@H]2CN1C(=O)[C@@H](NC(=O)[C@@H](NC(=O)c1cnccn1)C(C)C)C(C)C)C(=O)C(=O)N[C@@H](C)c1ccccc1 (stereo not given in full)
- inhibition [1]: 97%
- inhibition [12]: 33%

Structure (SMILES): CCCC(NC(=O)[C@@H]1[C@H]2CC=C[C@H]2CN1C(=O)[C@@H](NC(=O)[C@@H](NC(=O)c1cnccn1)C(C)C)C(C)C)C(=O)C(=O)N[C@@H](C)CC (stereo not given in full)
- inhibition [1]: 91%

Structure (SMILES): CCCC(NC(=O)[C@@H]1[C@H]2CC[C@@H](OCOC)C2CN1C(=O)[C@@H](NC(=O)[C@@H](NC(=O)c1cnccn1)C(C)C)C(C)C)C(=O)C(=O)N[C@@H](C)c1ccccc1 (stereo not given in full)
- inhibition [1]: 98%

Structure (SMILES): CCCC(NC(=O)[C@@H]1[C@H]2CC[C@H](F)[C@H]2CN1C(=O)[C@@H](NC(=O)[C@@H](NC(=O)c1cnccn1)C(C)C)C(C)C)C(=O)C(=O)N[C@@H](Cc1ccccc1)C(=O)O (stereo not given in full)
- inhibition [1]: -8%
